Results taken from publication PMC8306477, “Neuroprotective Effect of Terpenoids Recovered from Olive Oil By-Products” (Foods, 2021).
Like-named read-outs stand apart in the source and are kept apart here. Marks after values point to notes of the source that are not given here.

What was measured:
[1] = design: method as in PMID 23565574; details: BBB permeability of pharmacological drugs; cited from earlier work
[2] = PAMPA-BBB permeability of terpenes of SS adsorbate; format: in vitro ADME
Experimental: Previously, the BBB solution was prepared by dissolving 8 mg of PBL and 4 mg of cholesterol in 600 μL n-dodecane. Ethanolic olive leaves extract was dissolved in buffer (5 mM pH 7.4) as an initial solution at 10 mg/mL (EtOH/buffer, 1:1, v/v). Then, the filter membrane of the donor microplate was impregnated with 5 μL of BBB solution and the acceptor microplate was filled with 350 μL of buffer. Then, 200 μL of initial solution was added to the donor microplate which was assembled like a sandwich over the acceptor microplate. The microplate was incubated in the dark for 4 h at 37 °C and continuous agitation. After the incubation process, 200 μL were taken from each microplate, placed into a vial, dried, and reconstituted in 50 μL of EtOH to obtain donor and acceptor solutions. Both solutions were injected in the GC-qTOF-MS system to identify and compare the compounds present in both microplates. […] CD(t) is compound concentration in the donor well at time t and CA(t) is compound concentration in the acceptor well at time t.

[3] = RNS scavenging capacity, nitric oxide radical (Griess) assay; details: NO• scavenging; mean ± SD (n = 3)
Experimental: RNS was evaluated by the nitric oxide (NO^•) radical scavenging assay of OLE, according to Ho et al. (2010), based on the reaction of Griess. The 96-well microplate filling distribution was as follows: 100 μL of extract sample at different concentrations (250–2500 μg/mL) in EtOH/H2O (1:3, v/v), and 50 μL of SNP (5 mM) in buffer (30 mM pH = 7.5). The mixture was incubated at room temperature for 2 h under direct light. Nitrile ion concentration was measured at […] after the addition of […] Ascorbic acid was used as the reference standard. Each measurement was carried out in triplicate and the capacity of the extract for scavenging NO^• radicals was calculated through inhibition percentage as described in Equation (3).

[4] = ABTS•+ radical scavenging assay; details: mean ± SD (n = 3); 45 min, 30 °C
Experimental: Antioxidant activity of all olive leaves extracts was measured using the ABTS^•+ radical scavenging assay according to Re et al., (1999) with modifications. […] After this time, radical ABTS^•+ solution was diluted with the buffer (5 mM, pH 7.4) to adjust the absorbance to 0.700 ± 0.002 measured at 734 nm wavelength and 30 °C. The 96-well microplate containing 250 μL ABTS^•+ solution and 100 μL of olive leaves extract at six different concentrations (from 14.3 to 143 μg/mL EtOH/H2O (1:1, v/v)) was incubated in the dark at 30 °C. After 45 min, the absorbance at 734 nm was measured. Trolox and ascorbic acid were used as reference standards while rosemary extract was used as natural reference standard. All measurements were performed in triplicate. ABTS^•+ inhibition percentage from olive leaves extracts was calculated as follows:(3) %Inh=AABTScontrol−(Asample−Asample blank)/AABTS control×100 where AABTScontrol is the absorbance of ABTS^•+ radical in buffer at t = 0 min; Asample, is the absorbance of an ABTS^•+ solution mixed with extracts; and Asample blank is the absorbance of samples without ABTS^•+.

[5] = ROS scavenging capacity, ORAC method; details: mean ± SD (n = 3)
Experimental: Oxygen radical absorbance capacity (ORAC) method was performed as reported by Ou et al. (2001). Briefly, 100 μL of the extract sample at different concentrations (5–50 μg/mL) in EtOH/H2O (1: 9, v/v), 100 μL of AAPH (590 mM) in PBS buffer (30 mM, pH = 7.5), 25 μL of fluorescein (10 μM) in PBS buffer, and 100 μL of PBS buffer were placed in a 96-well microplate. The fluorescence kinetic measurements were recorded at λexcitation = 485 nm and λemission = 530 nm at intervals of 5 min for a runtime of 60 min at 37 °C. Ascorbic acid was used as the reference standard. Each measurement was carried out in triplicate and the capacity of the extract for scavenging peroxyl radicals generated by spontaneous decomposition of AAPH was calculated through the inhibition percentage of the difference between the Area Under the Curve (AUC) of fluorescence decay in the presence (AUCsample) or absence (AUCcontrol) of the sample by Equation (4). (4) %Inh=AUCcontrol−AUCsample/AUCcontrol×100

[6] = terpene within Sea Sand Adsorbate, 4 h, 37 °C, buffer pH 7.4, GC-qTOF-MS, read-out: PAMPA-BBB Log Pe (RSD %) (converted)

SMILES: O=c1c(O)c(-c2ccc(O)c(O)c2)oc2cc(O)cc(O)c12 [Quercetin]
- log Pe ± SD [1]: −7.02 ± 0.08 cm/s

SMILES: CC(C)=CCC/C(C)=C/CC/C(C)=C/CC/C=C(\C)CC/C=C(\C)CCC=C(C)C [Squalene]
- Papp at 4 h [2, 6]: 13.2 ×10⁻⁶ cm/s

SMILES: Cc1c(O)cc2c(c1C)O[C@](C)(CCC[C@H](C)CCC[C@H](C)CCCC(C)C)CC2 [γ-Tocopherol]
- Papp at 4 h [2, 6]: 8.91 ×10⁻⁶ cm/s

SMILES: C[C@H]1[C@H](C)CC[C@]2(CO)CC[C@]3(C)C(=CC[C@@H]4[C@@]5(C)CC[C@H](O)C(C)(C)[C@@H]5CC[C@]43C)[C@H]12 [Uvaol]
- Papp at 4 h [2, 6]: 1.51 ×10⁻⁶ cm/s

SMILES: COc1ccc2c3c1O[C@H]1C[C@@H](O)C=C[C@@]31CCN(C)C2 [Galantamine]
- log Pe ± SD [1]: −5.35 ± 0.02 cm/s

SMILES: O=C1O[C@H]([C@@H](O)CO)C(O)=C1O [Ascorbic acid]
- RNS IC50 [3]: 1100.90 ± 13.96 ^b µg/mL
- Antioxidant Capacity by ABTS IC50 [4]: 25.00 ± 0.30 ^a µg/mL
- ROS IC50 [5]: 1.29 ± 0.09 ^b µg/mL

SMILES: CC1(C)CC[C@]2(C)CC[C@]3(C)C(=CC[C@@H]4[C@@]5(C)CC[C@H](O)C(C)(C)[C@@H]5CC[C@]43C)[C@@H]2C1 [β-Amyrin]
- Papp at 4 h ([2]; pH 7.4): 0.479 ×10⁻⁶ cm/s

SMILES: Cc1c(C)c2c(c(C)c1O)CCC(C)(C(=O)O)O2 (racemic) [Trolox, (±)-6-Hydroxy-2,5,7,8-tetramethylchromane-2-carboxylic acid]
- Antioxidant Capacity by ABTS IC50 [4]: 2.50 ± 0.02 ^r µg/mL
- ROS IC50 [5]: 0.98 ± 0.11 ^c µg/mL

SMILES: CC1(C)CC[C@]2(CO)CC[C@]3(C)C(=CC[C@@H]4[C@@]5(C)CC[C@H](O)C(C)(C)[C@@H]5CC[C@]43C)[C@@H]2C1 [Erythrodiol]
- Papp at 4 h [2, 6]: 0.575 ×10⁻⁶ cm/s

SMILES: Cc1c(C)c2c(c(C)c1O)CC[C@@](C)(CCC[C@H](C)CCC[C@H](C)CCCC(C)C)O2 [α-Tocopherol]
- Papp at 4 h [2, 6]: 1.15 ×10⁻⁶ cm/s

SMILES: CC[C@H](CC[C@@H](C)[C@H]1CC[C@H]2[C@@H]3CC=C4C[C@@H](O)CC[C@]4(C)[C@H]3CC[C@]12C)C(C)C [β-Sitosterol]
- Papp at 4 h [2, 6]: 0.912 ×10⁻⁶ cm/s
